According to ChEMBL document CHEMBL1697781, “Assessment of the health effects of chemicals in humans: II. Construction of an adverse effects database for QSAR modeling” (Curr Drug Discov Technol, 2004):

What was measured:
Details in all cases: human; call rule not given here
Hepatotoxicity [1] = assay: FDA HLAED, liver enzyme composite activity
Hepatotoxicity [2] = assay: FDA HLAED, alkaline phosphatase increase
Hepatotoxicity [3] = assay: FDA HLAED, serum glutamic oxaloacetic transaminase (SGOT) increase
Hepatotoxicity [4] = assay: FDA HLAED, serum glutamic pyruvic transaminase (SGPT) increase
Hepatotoxicity [5] = assay: FDA HLAED, lactate dehydrogenase (LDH) increase
Hepatotoxicity [6] = assay: FDA HLAED, gamma-glutamyl transferase (GGT) increase
For GGT Increase - Index Value in this document: reference of the scale not given here.
For LDH Increase - Index Value in this document: reference of the scale not given here.

| SMILES | Composite Activity - Active (Hepatotoxicity [1]) | Composite Activity - Marginal (Hepatotoxicity [1]) | Composite Activity - Score (Hepatotoxicity [1]) | Alkaline Phosphatase Increase - Activity Score (Hepatotoxicity [2]) | Alkaline Phosphatase Increase - Index Value (Hepatotoxicity [2]) | Alkaline Phosphatase Increase - Number of Reports (Hepatotoxicity [2]) | SGOT Increase - Activity Score (Hepatotoxicity [3]) | SGOT Increase - Index Value (Hepatotoxicity [3]) | SGOT Increase - Number of Reports (Hepatotoxicity [3]) | SGPT Increase - Activity Score (Hepatotoxicity [4]) | SGPT Increase - Index Value (Hepatotoxicity [4]) | SGPT Increase - Number of Reports (Hepatotoxicity [4]) | LDH Increase - Activity Score (Hepatotoxicity [5]) | LDH Increase - Index Value (Hepatotoxicity [5]) | LDH Increase - Number of Reports (Hepatotoxicity [5]) | GGT Increase - Activity Score (Hepatotoxicity [6]) | GGT Increase - Index Value (Hepatotoxicity [6]) | GGT Increase - Number of Reports (Hepatotoxicity [6]) | also measured |
| --- | --- | --- | --- | --- | --- | --- | --- | --- | --- | --- | --- | --- | --- | --- | --- | --- | --- | --- | --- |
| CNC(=C[N+](=O)[O-])NCCSCc1ccc(CN(C)C)o1 [RANITIDINE] | 0 | 0 | Inactive | Inactive | 1.1 | >= 4 | Inactive | 1.2 | >= 4 | Inactive | 1 | >= 4 | Inactive | 0.3 | >= 4 | Inactive | 0 | < 4 | – |
| CO[C@H]1/C=C/O[C@@]2(C)Oc3c(C)c(O)c4c(c3C2=O)C2=NC3(CCN(CC(C)C)CC3)NC2=C(NC(=O)/C(C)=C\C=C\[C@H](C)[C@H](O)[C@@H](C)[C@@H](O)[C@@H](C)[C@H](OC(C)=O)[C@@H]1C)C4=O [RIFABUTIN] | – | – | – | Active | 15.9 | >= 4 | Active | 31.8 | >= 4 | Active | 31.8 | >= 4 | Inactive | 5.3 | < 4 | Active | 18.5 | >= 4 | Composite Activity - Active (Hepatotoxicity [1]; Liver): 4; Composite Activity - Marginal (Hepatotoxicity [1]; Liver): 0; Composite Activity - Score (Hepatotoxicity [1]; Liver): Active |
| Nc1nc2ccc(OC(F)(F)F)cc2s1 [RILUZOLE] | 1 | 0 | Inactive | Active | 45.2 | < 4 | Inactive | 22.6 | < 4 | Inactive | 22.6 | < 4 | Inactive | 22.6 | < 4 | Inactive | 22.6 | < 4 | – |
| CC(N)C12CC3CC(CC(C3)C1)C2 (stereo unspecified) [RIMANTADINE] | 0 | 0 | Inactive | Inactive | 1.7 | < 4 | Inactive | 3.3 | < 4 | Inactive | 1.7 | < 4 | Inactive | 0 | < 4 | Inactive | 0 | < 4 | – |
| CCC(=O)[C@@]1(C)[C@H](C)C[C@H]2[C@@H]3CCC4=CC(=O)C=C[C@]4(C)[C@H]3[C@@H](O)C[C@@]21C [RIMEXOLONE] | 0 | 0 | Inactive | Inactive | 0 | < 4 | Inactive | 0 | < 4 | Inactive | 0 | < 4 | Inactive | 0 | < 4 | Inactive | 0 | < 4 | – |
| Cc1nc2n(c(=O)c1CCN1CCC(c3noc4cc(F)ccc34)CC1)CCCC2 [RISPERIDONE] | 2 | 0 | Active | Inactive | 1.6 | >= 4 | Active | 4.8 | >= 4 | Active | 4.9 | >= 4 | Inactive | 0.9 | >= 4 | Inactive | 1.6 | >= 4 | – |
| CC(NCCc1ccc(O)cc1)C(O)c1ccc(O)cc1 (stereo unspecified) [RITODRINE] | 2 | 0 | Active | Inactive | 1.1 | < 4 | Active | 4.2 | >= 4 | Active | 4.2 | >= 4 | Inactive | 0 | < 4 | Inactive | 0 | < 4 | – |
| C=CC[N+]1([C@H]2C[C@H]3[C@@H]4CC[C@H]5C[C@H](O)[C@@H](N6CCOCC6)C[C@]5(C)[C@H]4CC[C@]3(C)[C@H]2OC(C)=O)CCCC1.[Br-] [ROCURONIUM BROMIDE] | 0 | 0 | Inactive | Inactive | 0 | < 4 | Inactive | 0 | < 4 | Inactive | 0 | < 4 | Inactive | 0 | < 4 | Inactive | 0 | < 4 | – |
| CCCN1CCCC[C@H]1C(=O)Nc1c(C)cccc1C [ROPIVACAINE] | 0 | 0 | Inactive | Inactive | 0 | < 4 | Inactive | 0 | < 4 | Inactive | 0 | < 4 | Inactive | 0 | < 4 | Inactive | 0 | < 4 | – |
| OCc1cc(C(O)CNCCCCCCOCCCCc2ccccc2)ccc1O (stereo unspecified) [SALMETEROL] | 0 | 0 | Inactive | Inactive | 0 | < 4 | Inactive | 0.1 | < 4 | Inactive | 0.1 | < 4 | Inactive | 0 | < 4 | Inactive | 0.1 | < 4 | – |
| C#CCN(C)[C@H](C)Cc1ccccc1 [SELEGILINE] | 0 | 0 | Inactive | Inactive | 2.2 | >= 4 | Inactive | 0.4 | < 4 | Inactive | 1.5 | >= 4 | Inactive | 0 | < 4 | Inactive | 1.8 | >= 4 | – |
| CN[C@H]1CC[C@@H](c2ccc(Cl)c(Cl)c2)c2ccccc21 [SERTRALINE] | – | – | – | Inactive | 2 | >= 4 | Inactive | 2.7 | >= 4 | Inactive | 2.1 | >= 4 | Inactive | 0.9 | >= 4 | Inactive | 2 | >= 4 | Composite Activity - Active (Hepatotoxicity [1]; Liver): 0; Composite Activity - Marginal (Hepatotoxicity [1]; Liver): 0; Composite Activity - Score (Hepatotoxicity [1]; Liver): Inactive |
